Structures can show the parent of a compound that is named as a salt.
Experiments:
[1] = test system: OXGR1 mutants (variant named in the endpoint); test: Calcium mobilization assay, OXGR1 mutants in HEK293; settings: for Emax: each ligand normalized to WT (100%);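 as to all read-outs here: human OXGR1 variants transiently expressed in HEK293 cells, with intracellular calcium read out by Fluo-4 AM fluorescence, measured 24 h after transfection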
Procedure: (§1) The full-length human SUCR1 and mutations were fused after the HA signal peptide and Flag tag. The constructs were cloned into pcDNA6.0 vector for HEK293 system.
(§2) HEK293 cells were obtained from ATCC (Manassas, VA, USA) and cultured in DMEM supplemented with 10% (v/v) FBS, 100 mg/L penicillin, and 100 mg/L streptomycin in 5% CO2 at 37 °C. For transient transfection, ~2.5 × 10^6 cells were mixed with 2 µg plasmids in 200 µL transfection buffer, and electroporation was carried out with a Scientz-2C electroporation apparatus (Scientz Biotech, Ningbo, China). The experiments were carried out 24 h after transfection. HEK293 cell lines stably expressing Gα16 were constructed by our laboratory.
(§3) For OXGR1, plasmids were transfected into HEK293 (other receptors were transfected into HEK293 stably expressing Gα16) and seeded at a density of 4 × 10^4 per well into 96-well culture plates and incubated for 24 h at 37 °C in 5% CO2. The next day, Cells were incubated with 2 μM/L Fluo-4 AM in HBSS supplemented with 5.6 mM/L D-glucose and 250 μM/L sulfinpyrazone at 37 °C for 45 min. […] Three independent measurements were repeated, i.e., three different transfections, with three technical replicates performed for each experiment. EC50 and Emax values for each curve were calculated by Prism 8.0 software (GraphPad Software).

[2] = test system: mock-transfected HEK293 cells; test: Calcium assay in mock-transfected (empty vector) HEK293 cells; assay type: cell-based
Text: Figure. R3 | Activity of the compounds on OXGR1 using calcium assays.
Concentration-response curves of the four agonists in activating OXGR1 through the calcium assays. HEK293 cells were transfected with OXGR1 or empty vector by electroporation.
Cells were then loaded with Fluo-4 AM and intracellular calcium changes after stimulation with different compounds were monitored. Responses were normalized to 100% for the maximal response of each compound on OXGR1. Data are mean ± S.E.M. from three independent experiments (n = 3), with three technical replicates performed for each […]
(1 picture or pasted object on this page, not shown here)

[3] = target: T1, SUCR1 (Homo sapiens, UniProt Q9BXA5); test: Calcium mobilization assay, wild-type SUCR1 in HEK293 stably expressing Gα16; assay type: cell-based;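 as to Emax: percent of the maximal response to succinate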
T1 construct: The full-length human SUCR1 and mutations were fused after the HA signal peptide and Flag tag; HA signal peptide (N); Flag (N); expressed in transfected cells; host or cells: HEK293 stably expressing Gα16 (pcDNA6.0, transient electroporation)
T1 sequence (Q9BXA5 1-334): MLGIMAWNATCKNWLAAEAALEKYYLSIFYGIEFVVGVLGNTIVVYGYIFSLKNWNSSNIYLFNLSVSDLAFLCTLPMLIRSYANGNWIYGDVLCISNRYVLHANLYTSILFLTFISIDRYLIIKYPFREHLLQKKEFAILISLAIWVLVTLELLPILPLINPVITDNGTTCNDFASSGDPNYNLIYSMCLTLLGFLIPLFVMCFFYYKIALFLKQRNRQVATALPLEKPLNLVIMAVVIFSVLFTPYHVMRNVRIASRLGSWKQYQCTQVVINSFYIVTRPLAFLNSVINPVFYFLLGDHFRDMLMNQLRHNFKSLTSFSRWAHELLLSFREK
Procedure: as §1, §2, §3

[4] = target: OXGR1 (Homo sapiens, UniProt Q96P68); test: Calcium mobilization assay (Fluo-4 AM), wild-type OXGR1 in HEK293
Procedure: as §1, §2, §3

## O=C(O)/C=C\C(=O)O [MA, maleate]
[1]; OXGR1 D185A
  EC50: > 1 mM
  Emax: 11± 3 WT%
[1]; OXGR1 E97A
  Emax: 79± 7 WT%
[1]; OXGR1 F113A
  EC50: > 1 mM
  Emax: 5.1± 10 WT%
[1]; OXGR1 F113W
  EC50: 1 ± 0.37 mM
  Emax: 99± 14 WT%
[1]; OXGR1 F113W versus WT
  increase in potency by F113W mutation: ~ 2 fold
[1]; OXGR1 F257A
  EC50: > 1 mM
  Emax: 6.6± 7 WT%
[1]; OXGR1 F257Y
  EC50: 1.9 ± 0.3 mM
  Emax: 93± 2 WT%
[1]; OXGR1 H114A
  EC50: 4.2 ± 0.3 mM
  Emax: 79± 4 WT%
[1]; OXGR1 H114L
  EC50: > 1 mM
  Emax: -4.4± 2 WT%
[1]; OXGR1 H281A
  Emax: 67±4 WT%
[1]; OXGR1 I172A
  EC50: > 1 mM
  Emax: 11± 2 WT%
[1]; OXGR1 L36A
  EC50: > 1 mM
  Emax: 10± 3 WT%
[1]; OXGR1 L89A
  EC50: > 1 mM
  Emax: 6.9± 1 WT%
[1]; OXGR1 L186A
  EC50: > 1 mM
  Emax: 14± 2 WT%
[1]; OXGR1 L186F
  EC50: > 10 mM
  Emax: 58± 4 WT%
[1]; OXGR1 L299P
  EC50: > 1 mM
  Emax: 7.8±3 WT%
[1]; OXGR1 L299P, in words
  activation of OXGR1 L299P: abolished
[1]; OXGR1 M168I
  EC50: 3.2 ± 0.3 mM
  Emax: 71± 0.9 WT%
[1]; OXGR1 N28A
  EC50: 0.58 ± 0.03 mM
  Emax: 120± 2 WT%
[1]; OXGR1 R110A
  EC50: > 1 mM
  Emax: -4.4± 2 WT%
[1]; OXGR1 R110E
  EC50: > 10 mM
  Emax: 36± 30 WT%
[1]; OXGR1 R110Q
  EC50: > 1 mM
  Emax: 14± 5 WT%
[1]; OXGR1 R177A
  Emax: 130± 8 WT%
[1]; OXGR1 R264A
  EC50: > 10 mM
  Emax: 54± 5 WT%
[1]; OXGR1 R268A
  EC50: > 1 mM
  Emax: 22± 4 WT%
[1]; OXGR1 R288A
  EC50: > 1 mM
  Emax: -2.1±4 WT%
[1]; OXGR1 R288E
  EC50: > 1 mM
[1]; OXGR1 R288Q
  EC50: > 1 mM
  Emax: 16±2 WT%
[1]; OXGR1 Y40A
  EC50: > 1 mM
  Emax: -1.9± 6 WT%
[1]; OXGR1 Y93A
  EC50: > 1 mM
  Emax: 17± 20 WT%
[1]; OXGR1 Y284A
  EC50: > 1 mM
  Emax: 4.8±4 WT%
[2]
  activity in mock-transfected cells: no activity
[3]; HEK293, SUCR1 WT, Emax relative to the SUC, read-out: Emax
  Emax: 89 ± 1%
[3]; SUCR1 WT
  EC50: 0.21 ± 0.07 mM
[4]; EC50, OXGR1 WT, mutant series (Appendix Table S4)
  EC50: 2 ± 0.4 mM
[4]; HEK293, OXGR1 WT, each ligand normalized to WT (100%)
  Emax: 100 ± 4%
[4]; in words
  activity in OXGR1-transfected HEK293 cells: robust activity

From article PMC13372822 (The EMBO Journal, 2026)
